Like-named read-outs stand apart in the source and are kept apart here.
Columns and labels:
[1] = tested on: SSRI-resistant outpatients with major depressive disorder (MDD)
Procedure: Documentation of the presence of any side effect or adverse event is completed at every visit using the SAFTEE-SI. Subjects can contact a clinician at any time between visits concerning adverse events or worsening of symptoms. Suicidal ideation is assessed at each visit. Subjects who are felt by the study clinician to be at high risk for suicide are discontinued from the study and referred for hospitalization and further treatment if clinically indicated (See Tables 4 & 5 below).
One-way analysis of variance can be used to assess differences in total number of SAFTEE-SI AEs between baseline and endpoint.

[2] = tested on: SSRI-resistant outpatients with major depressive disorder (MDD); remark: listed apart in the source
From the text: Using the sequential parallel design […] For those randomly assigned to the placebo/placebo sequence, both responders and non-responders to placebo during the first phase (n=25) remain on placebo during the second phase. […] Data from the previous double-blind, placebo-controlled study (Trial 1) can be pooled into the instant study (Trial 2) to provide a more accurate estimate of the placebo effect size, with a weighted average from the two Phases 1 (one from Trial 1 and one from Trial 2) and two Phases 2 (one from Trial 1 and one from Trial 2).
The primary efficacy measure can include the change in 17-item Hamilton Rating Scale for Depression (HAM-D-17) score. […] A remission is, for example, defined as a HAM-D-17 score less than 8 at endpoint. Secondary measures of efficacy can include change in CGI-severity, with “clinical response defined” as CGI-S of 1 or 2 at endpoint. Patients with a CGI-I score greater than 5 at any post baseline visit or a 50 percent or greater worsening of depressive symptoms from baseline to that visit are discontinued from the study. Subjects are also discontinued from the study with any emergence of suicidality, homicidality, mania, or psychosis. Additional exemplary instruments that can be administered according to the study schedule include the following: • (1) Structured Clinical Interview for DSM-IV: The SCID-I/P, administered by the clinician, proceeds by modules to diagnose the different Axis I disorders. Questions are asked exactly as written, and each is based on the individual criteria from DSM-IV. Answers are generally rated on a scale of 1-3 (1=doubtful, 2=probable, 3=definite), and, based on the number of positive answers, a diagnosis is determined by a clinician. While the entire SCID-I/P is administered at screen, the mood module is administered at each follow up visit. • (2) The MGH Antidepressant Treatment History Questionnaire (MGH-ATR): The MGH-ATR provides specific criteria for the adequate dose and adequate length of a trial for it to be considered a failure, thus allowing clinicians to systematically collect data aimed at assessing the degree of treatment-resistance of the current major depressive episode. • (3) The 28-item Hamilton Depression Scale (HAM-D-28): This version allows scoring of the HAM-D-17, 21-, 25-, and 28-item scales. This instrument is completed by the clinician by using a structured interview and defined anchor points, and aims to quantify the degree of depression over the past 7 days. The HAM-D is the most widely studied instrument for depression, and its reliability and validity are high. • (4) Clinical Global Impressions—Severity and Improvement (CGI-S, CGI-I): These two instruments are scored 1-7 by the clinician based on assessment of the patient's clinical status. They measure, based on history and scores on other instruments: a) Depressive severity (CGI-S) and b) Clinical Improvement (CGI-I). […] Safety Measurements
Data are entered and error-checked at each clinical site involved in the study. Study staff and subjects may have the option to enter self-evaluations into the system directly using DatStat Illume™. The process of data entry is supervised by the DCRP staff. Once the data set is entered and checked, analyses are conducted. Both a completer analysis of all patients finishing the trial and an intent-to-treat analysis examining all patients enrolled into the trial are used to define the severity of depression at endpoint. Examination of both study completers and all patients randomized can provide the broadest assessment of the effects of treatment in trials of such kind. The data from Trial 2 can be pooled with those from Trial 1 with the sequential parallel comparison design, to provide an estimate of the placebo response based on a larger sample size. […] Let p1, q1 be the response rates to the first administration of drug and placebo respectively and let p2, q2 be the responses rates to the second treatment.

[3] = tested on: MDD patients positive or negative for SNP biomarkers; settings: subjects positive for MTR 2756 AG or GG versus negative
From the text: A responder is indicated by a reduction of at least about 50% in HAMD-28 over the evaluation period.

[4] = Trial 2, 15 mg + SSRI, versus placebo
[5] = Pooled Phase 1 and 2, 7.5 mg/day + SSRI

CN1c2c(nc(N)[nH]c2=O)NC[C@@H]1CNc1ccc(C(=O)N[C@@H](CCC(=O)O)C(=O)O)cc1 [6(S)-5-MTHF, 6(S)-5-methyltetrahydrofolate]
number of adverse events (SAFTEE-SI) ([1]; SSRI + 15 mg/day versus SSRI + placebo): no significant differences in the number of adverse events | discontinuation due to overall adverse side-effects or exclusion events ([1]; Trial 2): no difference in discontinuation | Cardiovascular side effects, Frequency ([1]; Trial 2, 15 mg + SSRI, n = 42): 0 | Cardiovascular side effects, Frequency (%) ([1]; Trial 2, 15 mg + SSRI, n = 42): (0%) | Gastrointestinal side effects, Frequency ([1]; Trial 2, 15 mg + SSRI, n = 42): 7 | Gastrointestinal side effects, Frequency (%) ([1]; Trial 2, 15 mg + SSRI, n = 42): (16.7%) | Infectious side effects, Frequency ([1]; Trial 2, 15 mg + SSRI, n = 42): 5 | Infectious side effects, Frequency (%) ([1]; Trial 2, 15 mg + SSRI, n = 42): (11.9%) | Miscellaneous side effects, Frequency ([1]; Trial 2, 15 mg + SSRI, n = 42): 1 | Miscellaneous side effects, Frequency (%) ([1]; Trial 2, 15 mg + SSRI, n = 42): (2.4%) | Psychological side effects, Frequency ([1]; Trial 2, 15 mg + SSRI, n = 42): 4 | Psychological side effects, Frequency (%) ([1]; Trial 2, 15 mg + SSRI, n = 42): (9.5%) | Sexual side effects, Frequency ([1]; Trial 2, 15 mg + SSRI, n = 42): 1 | Sexual side effects, Frequency (%) ([1]; Trial 2, 15 mg + SSRI, n = 42): (2.4%) | Sleep side effects, Frequency ([1]; Trial 2, 15 mg + SSRI, n = 42): 1 | Sleep side effects, Frequency (%) ([1]; Trial 2, 15 mg + SSRI, n = 42): (2.4%) | Somatic side effects, Frequency ([1]; Trial 2, 15 mg + SSRI, n = 42): 6 | Somatic side effects, Frequency (%) ([1]; Trial 2, 15 mg + SSRI, n = 42): (14.3%) | Cardiovascular side effects, NNH [1, 4]: =placebo | Gastrointestinal side effects, NNH [1, 4]: 53 | Infectious side effects, NNH [1, 4]: <placebo | Miscellaneous side effects, NNH [1, 4]: <placebo | Psychological side effects, NNH [1, 4]: <placebo | Sexual side effects, NNH [1, 4]: 98 | Sleep side effects, NNH [1, 4]: <placebo | Somatic side effects, NNH [1, 4]: <placebo | efficacy as an adjunct to the SSRIs ([2]; 7.5 mg/day): not effective | CGI-S Mean score reduction ([2]; Phase 1, 7.5 mg/day + SSRI): −0.5 | HDRS-17 % Remission ([2]; Phase 1, 7.5 mg/day + SSRI): 11.1% | HDRS-17 % Response ([2]; Phase 1, 7.5 mg/day + SSRI): 19.4% | HDRS-17 Mean score reduction ([2]; Phase 1, 7.5 mg/day + SSRI): −4.3 | QIDS-SR % Remission ([2]; Phase 1, 7.5 mg/day + SSRI): 0.0% | QIDS-SR % Response ([2]; Phase 1, 7.5 mg/day + SSRI): 25.0% | QIDS-SR Mean score reduction ([2]; Phase 1, 7.5 mg/day + SSRI): −4.6 | CGI-S Mean score reduction ([2]; Phase 2, 7.5 mg/day + SSRI): −0.5 | HDRS-17 % Remission ([2]; Phase 2, 7.5 mg/day + SSRI): 14.2% | HDRS-17 % Response ([2]; Phase 2, 7.5 mg/day + SSRI): 17.1% | HDRS-17 Mean score reduction ([2]; Phase 2, 7.5 mg/day + SSRI): −3.1 | QIDS-SR % Remission ([2]; Phase 2, 7.5 mg/day + SSRI): 8.5% | QIDS-SR % Response ([2]; Phase 2, 7.5 mg/day + SSRI): 8.5% | QIDS-SR Mean score reduction ([2]; Phase 2, 7.5 mg/day + SSRI): −1.9 | CGI-S Mean score reduction [2, 5]: −0.53 | HDRS-17 % Remission [2, 5]: 12.7% | HDRS-17 % Response [2, 5]: 18.3% | HDRS-17 Mean score reduction [2, 5]: −3.70 | QIDS-SR % Remission [2, 5]: 4.3% | QIDS-SR % Response [2, 5]: 16.8% | QIDS-SR Mean score reduction [2, 5]: −3.25 | increase in response and remission rate versus placebo with the SSRIs ([2]; Trial 1, 15 mg/day in second phase): at least 2 fold | response and remission rate ([2]; Trial 1, drug/drug sequence, dose increased to 15 mg/day in second phase, placebo 9%, p=0.1): 24% | treatment effect within genetic modifiers (race, age, sex, BMI) [3]: statistically significant treatment effect
